Our source for the IC50 values is patent US11426473B2, “Nitrogen-containing compound or salt thereof, or metal complex thereof” (FUJIFILM Corporation, priority 2013, dated 2022).

One assay addresses T1, Integrin αvβ3 (Homo sapiens, UniProt P05106+P06756).
T1 construct: purchased Chemicon International, Inc
Kind of assay: Integrin αvβ3 binding affinity test. As to the method:
(§1) […] αvβ3 (Chemicon International, Inc.) was immobilized on each well of a 96-well plate (Corning Inc.). Each well was blocked with a 1% Block Ace (DS Pharma Biomedical Co., Ltd) solution and then washed with T-PBS (PBS containing 0.05% Tween 20). Evaluation compound solutions having a 2-fold concentration (10 concentrations of 3.16-fold dilutions from 0.3 μmol/L, buffer (20 mM Tris-HCl pH 7.5, 150 mM NaCl, 1 mM CaCl2, 1 mM MgCl2, and 1 mM MnCl2)) and a 4 μg/mL biotinylated vitronectin solution (vitronectin (Upstate Biotechnology Inc.) was labeled with EZ-Link Sulfo-NHS-Biotinylation Kit (Pierce/Thermo Fisher Scientific Inc.) and then concentration-adjusted) were each added at 50 μL/well, and the plate was shaken at room temperature for 2 hours. After washing with T-PBS, a 0.2 μg/mL avidin peroxidase (Pierce/Thermo Fisher Scientific Inc.) solution was added thereto, and the plate was shaken at room temperature for 1 hour. After washing with T-PBS, color was developed by an o-phenylenediamine (Sigma-Aldrich Inc.) solution (the reaction was terminated by the addition of 4 mol/L sulfuric acid), and the absorbance was measured (490 nm, Reference: 595 nm). The IC50 value was calculated using XLfit 3.0 (ID Business Solutions Ltd.). RGDfV (Bachem AG) was measured in duplicate as a QC sample for each plate.

The target in the next assay is T2, Integrin αvβ5 (Homo sapiens, UniProt P06756+P18084).
T2 construct: purchased Chemicon International, Inc
The assay can be described thus: Integrin αvβ5 binding affinity test. How it is done: as §1, with “αvβ5” for “αvβ3”, “PBST (10 mM Na2HPO4 pH 7.5, 150 mM NaCl, and 0.01%” for “T-PBS (PBS containing 0.05%”, “PBST,” for “T-PBS,”

Where [1] appears, read: inhibition of biotinylated vitronectin binding to immobilized αvβ3, read-out: IC50 value αv β3.
Where [2] appears, read: inhibition of biotinylated vitronectin binding to immobilized αvβ5, read-out: IC50 value αvβ5.

Read-outs that look alike come from different tables or passages of the source. Where only a bound is given, the exact number is not on record here.

T1 sequence (P06756 31-889 limits assumed): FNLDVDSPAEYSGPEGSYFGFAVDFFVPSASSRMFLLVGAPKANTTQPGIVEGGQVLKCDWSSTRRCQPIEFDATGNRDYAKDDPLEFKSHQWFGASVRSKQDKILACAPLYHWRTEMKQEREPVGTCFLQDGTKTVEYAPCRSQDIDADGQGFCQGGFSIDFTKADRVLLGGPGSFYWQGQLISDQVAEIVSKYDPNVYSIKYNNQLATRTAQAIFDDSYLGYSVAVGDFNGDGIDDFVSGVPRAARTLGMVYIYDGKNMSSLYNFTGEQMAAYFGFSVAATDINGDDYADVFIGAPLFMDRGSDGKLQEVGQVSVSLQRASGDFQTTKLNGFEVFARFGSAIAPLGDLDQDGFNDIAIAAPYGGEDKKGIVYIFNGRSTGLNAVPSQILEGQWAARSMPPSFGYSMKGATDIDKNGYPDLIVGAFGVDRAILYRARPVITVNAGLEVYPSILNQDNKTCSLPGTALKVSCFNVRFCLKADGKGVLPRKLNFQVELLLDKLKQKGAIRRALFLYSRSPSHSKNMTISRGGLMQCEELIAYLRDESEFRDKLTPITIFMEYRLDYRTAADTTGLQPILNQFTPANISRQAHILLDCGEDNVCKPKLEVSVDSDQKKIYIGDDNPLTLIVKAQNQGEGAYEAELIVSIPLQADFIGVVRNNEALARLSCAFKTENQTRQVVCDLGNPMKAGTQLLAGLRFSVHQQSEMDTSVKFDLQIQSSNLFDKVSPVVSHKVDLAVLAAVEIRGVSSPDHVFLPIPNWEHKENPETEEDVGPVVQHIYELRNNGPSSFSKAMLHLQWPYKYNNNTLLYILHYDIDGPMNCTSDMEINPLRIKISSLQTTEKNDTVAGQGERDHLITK
T1 sequence (P06756 891-1048 partner limits assumed): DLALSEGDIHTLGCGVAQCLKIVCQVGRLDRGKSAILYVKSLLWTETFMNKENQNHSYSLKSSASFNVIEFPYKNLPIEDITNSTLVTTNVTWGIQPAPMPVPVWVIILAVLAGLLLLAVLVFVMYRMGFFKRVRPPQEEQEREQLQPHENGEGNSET
T1 sequence (P05106 27-788): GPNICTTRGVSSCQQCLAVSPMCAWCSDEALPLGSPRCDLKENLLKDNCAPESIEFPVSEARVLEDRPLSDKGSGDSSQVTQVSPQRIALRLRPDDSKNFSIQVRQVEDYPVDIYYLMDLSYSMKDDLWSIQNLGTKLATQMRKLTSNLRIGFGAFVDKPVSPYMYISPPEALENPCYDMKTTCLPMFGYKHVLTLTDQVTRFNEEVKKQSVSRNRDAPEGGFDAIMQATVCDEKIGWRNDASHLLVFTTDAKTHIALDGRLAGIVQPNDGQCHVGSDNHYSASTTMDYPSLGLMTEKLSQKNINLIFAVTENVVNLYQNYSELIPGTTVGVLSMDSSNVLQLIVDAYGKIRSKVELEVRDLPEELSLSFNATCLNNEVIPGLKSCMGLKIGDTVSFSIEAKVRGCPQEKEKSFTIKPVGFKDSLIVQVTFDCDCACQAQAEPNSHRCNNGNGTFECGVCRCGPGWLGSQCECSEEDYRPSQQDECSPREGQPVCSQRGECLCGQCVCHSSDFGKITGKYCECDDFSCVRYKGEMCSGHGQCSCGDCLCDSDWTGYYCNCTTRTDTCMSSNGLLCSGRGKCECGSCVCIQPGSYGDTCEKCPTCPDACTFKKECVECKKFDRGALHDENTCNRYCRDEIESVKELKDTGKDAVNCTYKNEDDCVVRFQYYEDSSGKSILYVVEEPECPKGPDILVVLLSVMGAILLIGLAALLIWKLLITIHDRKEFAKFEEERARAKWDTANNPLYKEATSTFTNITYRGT
T2 sequence (P06756 31-889 limits assumed): as the sequence (P06756 31-889 limits assumed) above
T2 sequence (P06756 891-1048 partner limits assumed): as the sequence (P06756 891-1048 partner limits assumed) above
T2 sequence (P18084 24-799): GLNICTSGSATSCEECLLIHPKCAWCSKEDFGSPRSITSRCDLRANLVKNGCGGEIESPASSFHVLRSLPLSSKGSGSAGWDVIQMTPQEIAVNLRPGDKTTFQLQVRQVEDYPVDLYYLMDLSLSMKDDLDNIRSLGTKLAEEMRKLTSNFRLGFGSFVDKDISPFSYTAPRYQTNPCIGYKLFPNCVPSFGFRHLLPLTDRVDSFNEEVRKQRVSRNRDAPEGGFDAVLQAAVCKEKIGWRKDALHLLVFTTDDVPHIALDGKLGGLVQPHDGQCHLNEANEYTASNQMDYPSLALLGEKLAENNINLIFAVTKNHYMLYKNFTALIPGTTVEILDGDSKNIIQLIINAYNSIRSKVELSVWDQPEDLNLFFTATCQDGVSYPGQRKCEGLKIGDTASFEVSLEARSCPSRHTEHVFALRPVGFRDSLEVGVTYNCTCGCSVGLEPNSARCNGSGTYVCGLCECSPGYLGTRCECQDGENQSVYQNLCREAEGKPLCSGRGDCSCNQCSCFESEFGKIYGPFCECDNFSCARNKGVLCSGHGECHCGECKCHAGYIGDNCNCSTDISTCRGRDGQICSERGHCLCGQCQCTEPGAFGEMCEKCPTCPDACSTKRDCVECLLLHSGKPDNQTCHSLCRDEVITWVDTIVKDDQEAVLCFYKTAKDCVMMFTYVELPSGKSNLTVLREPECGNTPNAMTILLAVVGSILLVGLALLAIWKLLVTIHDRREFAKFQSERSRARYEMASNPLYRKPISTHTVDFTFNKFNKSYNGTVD

As to `Cc1cc(OCCCC(=O)NCCNC(=O)[C@H](CS(=O)(=O)O)NC(=O)CN2CCN(CC(=O)O)CCN(CC(=O)O)CCN(CC(=O)O)CC2)cc(C)c1S(=O)(=O)N[C@@H](CNC(=O)CCCCCc1ccc2c(n1)NCCC2)C(=O)O` [Compound W10, 2,2′,2″-(10-(2-(((R)-1-((2-(4-(4-(N—((S)-1-carboxy-2-(6-(5,6,7,8-tetrahydro-1,8-naphthyridin-2-yl)hexanamido)ethyl)sulfamoyl)-3,5-dimethylphenoxy)butanamido)ethyl)amino)-1-oxo-3-sulfopropan-2-yl)amino)-2-oxoethyl)-1,4,7,10-tetraazacyclododecane-1,4,7-triyl)triacetic acid], the IC50 is < 1 nM at Integrin αvβ3 (setting [1]) and 1 to 10 nM on Integrin αvβ5 (setting [2]).

Turning to `Cc1cc(OCCCC(=O)NCCNC(=O)[C@H](CS(=O)(=O)O)NC(=O)CN2CCN(CC(=O)O)CCN(CC(=O)O)CCN(CC(=O)O)CC2)cc(C)c1S(=O)(=O)N[C@@H](CNC(=O)CCCCc1ccc2c(n1)NCCC2)C(=O)O` [Compound P2, 2,2′,2′-(10-(2-(((R)-1-((2-(4-(4-(N—((S)-1-carboxy-2-(5-(5,6,7,8-tetrahydro-1,8-naphthyridin-2-yl)pentanamido)ethyl)sulfamoyl)-3,5-dimethylphenoxy)butanamido)ethyl)amino)-1-oxo-3-sulfopropan-2-yl)amino)-2-oxoethyl)-1,4,7,10-tetraazacyclododecane-1,4,7-triyl)triacetic acid], the IC50 at Integrin αvβ3 (setting [1]) and at Integrin αvβ5 (setting [2]) was < 1 nM throughout.

As to `Cc1cc(OCCCC(=O)NCCNC(=O)[C@H](CS(=O)(=O)O)NC(=O)CCC(NC(=O)CN2CCN(CC(=O)O)CCN(CC(=O)O)CCN(CC(=O)O)CC2)C(=O)N[C@@H](CS(=O)(=O)O)C(=O)NCCNC(=O)CCCOc2cc(C)c(S(=O)(=O)N[C@@H](CNC(=O)c3ccc(CCc4ccc5c(n4)NCCC5)cc3)C(=O)O)c(C)c2)cc(C)c1S(=O)(=O)N[C@@H](CNC(=O)c1ccc(CCc2ccc3c(n2)NCCC3)cc1)C(=O)O` (stereo partly shown) [Compound H9], the IC50 on Integrin αvβ3 (setting [1]) and on Integrin αvβ5 (setting [2]) was < 1 nM in each case.

As for `Cc1cc(OCCCC(=O)NCCNC(=O)[C@H](CS(=O)(=O)O)NC(=O)CN2CCN(CC(=O)O)CCN(CC(=O)O)CCN(CC(=O)O)CC2)cc(C)c1S(=O)(=O)N[C@@H](CNC(=O)c1ccc(CCc2ccc3c(n2)NCCC3)cc1)C(=O)O` [Compound B2, 2,2′,2″-(10-(2-(((R)-1-((2-(4-(4-(N—((S)-1-carboxy-2-(4-(2-(5,6,7,8-tetrahydro-1,8-naphthyridin-2-yl)ethyl)benzamido)ethyl)sulfamoyl)-3,5-dimethylphenoxy)butanamido)ethyl)amino)-1-oxo-3-sulfopropan-2-yl)amino)-2-oxoethyl)-1,4,7,10-tetraazacyclododecane-1,4,7-triyl)triacetic acid], the IC50 at Integrin αvβ3 (setting [1]) and on Integrin αvβ5 (setting [2]) was < 1 nM in each case.

With `Cc1cc(OCCCC(=O)NCCNC(=O)C(CS(=O)(=O)O)NC(=O)CN2CCN3CCN4CCN(CC2)CC(=O)[O][Y]([O]C(=O)C3)[O]C(=O)C4)cc(C)c1S(=O)(=O)NC(CNC(=O)CCCCc1ccc2c(n1)NCCC2)C(=O)O` (stereo not shown) [DD], the IC50 at Integrin αvβ3 and at Integrin αvβ5 was < 1 nM in each case.

For the molecule `Cc1cc(OCCCC(=O)NCCNC(=O)COCCOCCNC(=O)[C@H](CS(=O)(=O)O)NC(=O)CN2CCN(CC(=O)O)CCN(CC(=O)O)CCN(CC(=O)O)CC2)cc(C)c1S(=O)(=O)N[C@@H](CNC(=O)c1ccc(CCc2ccc3c(n2)NCCC3)cc1)C(=O)O` [Compound G3, 2,2′,2″-(10-((R)-22-(4-(N—((S)-1-carboxy-2-(4-(2-(5,6,7,8-tetrahydro-1,8-naphthyridin-2-yl)ethyl)benzamido)ethyl)sulfamoyl)-3,5-dimethylphenoxy)-2,5,14,19-tetraoxo-4-(sulfomethyl)-9,12-dioxa-3,6,15,18-tetraazadocosyl)-1,4,7,10-tetraazacyclododecane-1,4,7-triyl)triacetic acid], the IC50 at Integrin αvβ3 (setting [1]) and at Integrin αvβ5 (setting [2]) was < 1 nM in each case.

Consider `Cc1cc(OCCCC(=O)NCCNC(=O)COCCOCCNC(=O)CN2CCN(CC(=O)O)CCN(CC(=O)O)CCN(CC(=O)O)CC2)cc(C)c1S(=O)(=O)N[C@@H](CNC(=O)c1ccc(CCc2ccc3c(n2)NCCC3)cc1)C(=O)O` [Compound D3, (S)-2,2′,2′-(10-(19-(4-(N-(1-carboxy-2-(4-(2-(5,6,7,8-tetrahydro-1,8-naphthyridin-2-yl)ethyl)benzamido)ethyl)sulfamoyl)-3,5-dimethylphenoxy)-2,11,16-trioxo-6,9-dioxa-3,12,15-triazanonadecyl)-1,4,7,10-tetraazacyclododecane-1,4,7-triyl)triacetic acid], for which the concentration for half-maximal inhibition (IC50) on Integrin αvβ3 (setting [1]) and on Integrin αvβ5 (setting [2]) was < 1 nM each time.

For `Cc1cc(OCCCC(=O)NCCNC(=O)COCCOCCNC(=O)CN2CCN3CCN4CCN(CC2)CC(=O)[O][In]([O]C(=O)C3)[O]C(=O)C4)cc(C)c1S(=O)(=O)NC(CNC(=O)c1ccc(CCc2ccc3c(n2)NCCC3)cc1)C(=O)O` (stereo not shown) [BB], the IC50 at Integrin αvβ3 and at Integrin αvβ5 was < 1 nM throughout.

Turning to `O=C(O)CC(c1cncc(OCCCC(=O)NCCNC(=O)[C@H](CS(=O)(=O)O)NC(=O)[C@H](CS(=O)(=O)O)NC(=O)CN2CCN(CC(=O)O)CCN(CC(=O)O)CCN(CC(=O)O)CC2)c1)n1ccc2cc(OCCc3ccc4c(n3)NCCC4)ccc21` (stereo partly drawn) [Compound I21, 2,2′,2″-(10-((4R,7R)-16-((5-(2-carboxy-1-(5-(2-(5,6,7,8-tetrahydro-1,8-naphthyridin-2-yl)ethoxy)-1H-indol-1-yl)ethyl)pyridin-3-yl)oxy)-2,5,8,13-tetraoxo-4,7-bis(sulfomethyl)-3,6,9,12-tetraazahexadecyl)-1,4,7,10-tetraazacyclododecane-1,4,7-triyl)triacetic acid], the IC50 on Integrin αvβ3 (setting [1]) and on Integrin αvβ5 (setting [2]) was < 1 nM throughout.

With `Cc1cc(OCCCC(=O)NCCNC(=O)[C@H](CS(=O)(=O)O)NC(=O)CCC(C(=O)O)N2CCCN3CCN(CCCN(CC(=O)O)CC3)CC2)cc(C)c1S(=O)(=O)N[C@@H](CNC(=O)CCCCc1ccc2c(n1)NCCC2)C(=O)O` (single isomer, unassigned) [Ab9-a], the half-inhibitory concentration (IC50) on Integrin αvβ3 (setting [1]) and on Integrin αvβ5 (setting [2]) was < 1 nM throughout.

Consider `Cc1cc(OCCCC(=O)NCCNC(=O)[C@H](CS(=O)(=O)O)NC(=O)CC[C@H](NC(=O)CN2CCN(CC(=O)O)CCN(CC(=O)O)CCN(CC(=O)O)CC2)C(=O)N[C@@H](CS(=O)(=O)O)C(=O)NCCNC(=O)CCCOc2cc(C)c(S(=O)(=O)N[C@@H](CNC(=O)c3ccc(CCc4cccc(N)n4)cc3)C(=O)O)c(C)c2)cc(C)c1S(=O)(=O)N[C@@H](CNC(=O)c1ccc(CCc2cccc(N)n2)cc1)C(=O)O` [Compound L10], for which the 50% inhibitory concentration (IC50) at Integrin αvβ3 (setting [1]) and at Integrin αvβ5 (setting [2]) was < 1 nM in each case.

What is called IC50 is the point on the concentration scale where inhibition reaches its midpoint.
